System: HACAT cells
Assay: HACAT cell proliferation, MTT bioassay
Assay type: cell-based
Experimental: HACAT cells were seeded in 96 well plates and cultured for one day in DMEM medium with 10% FBS, then subjected to starvation for one day. After starvation, the cells were treated for three days with various dosages of EGF in serum free media. […] The ED50 was approximately 300 pg/ml.
HACAT cells were seeded in 96 well plates and cultured for one day in DMEM medium with 10% FBS, then subjected to starvation for one day. After starvation, the cells were treated for three days with various dosages of Anti-Aging Cytokine Complex AC (“AC ”), i.e. a mixture comprising EGF, bFGF, IGF-1 and TRX, in serum free media.
FIG. 3A depicts control cells, FIG. 3B cells treated with 0.5 ng/ml EGF, and FIG. 3C cells treated with 0.5 ng/ml of AC.

With “EGF: epidermal growth factor, composed of 53 amino acids” the “ED50 (cell proliferation)” value (starved one day, treated three days in serum free media) was “approximately 300 pg/ml” and the “cell proliferation ratio versus untreated controls” value (three days, serum free media) was “higher cell proliferation ratios than the untreated controls”.

From US20070224150A1, “Growth factor for hair and skin treatment” (priority 2005, published 2007)
